From patent publication US8524740B2, “Synthesis and anticancer activity of aryl and heteroaryl-quinolin derivatives” (Tairx, Inc., priority 2010, dated 2013)

Legend:
[1] = tested on: HT29/5FuR; experiment: MTT assay, HT29/5FuR cells; assay type: cell-based; settings: Homo sapiens, HT-29, Table 1, 48 h
Protocol: (§1) MTT (3-(4,5-Dimethylthiazol-2-yl)-2,5-diphenyltetrazolium bromide) assays.^21,22 HL-60, HCT-116, Hep 3B, H460, Detroit 551 and HT29/FuR cells were treated with tested compounds for the indicated periods. After treatment, cells were washed once with PBS and incubated with MTT (Sigma, St. Louis, Mo., USA) for 2 h. The formazan precipitate was dissolved in 150 μL of DMSO, and the absorbance was measured with an ELISA reader at 570 nm.

[2] = tested on: Detroit 551; experiment: MTT assay, Detroit 551 normal human cells; assay type: cell-based; settings: Detroit 551
Protocol: as §1
(§2) HL-60, Hep 3B, H460, MES-SA, MES-SAID x5 and Detroit 551 cells were treated with vehicle or test compounds for 48 h. The cell growth rate was determined by MTT (3-(4,5-dimethyl-thiazol-2-yl)-2,5-diphenyltetrazoliun bromide) reduction assay.
as §1, with “assays.” for “assays.^21,22”, “HL-60,” for “HL-60, HCT-116,”, “H460, A498, Colo205 and” for “H460,”, “551” for “551 and HT29/FuR”

[3] = tested on: H460; experiment: MTT assay, H460 cells; assay type: cell-based; settings: Homo sapiens, NCI-H460
Protocol: as §1, §2
as §1, with “assays.” for “assays.^21,22”, “HL-60,” for “HL-60, HCT-116,”, “H460, A498, Colo205 and” for “H460,”, “551” for “551 and HT29/FuR”

[4] = tested on: HL-60; experiment: MTT assay, HL-60 cells; assay type: cell-based; settings: Homo sapiens
Protocol: as §1, §2
as §1, with “assays.” for “assays.^21,22”, “HCT-116, A549,” for “HCT-116,”, “KB, Kb-VIN” for “H460, Detroit 551”, “DU145” for “HT29/FuR”
as §1, with “assays.” for “assays.^21,22”, “HL-60,” for “HL-60, HCT-116,”, “H460, A498, Colo205 and” for “H460,”, “551” for “551 and HT29/FuR”

[5] = tested on: HL-60, HCT-116, Hep3B, H-460; experiment: Cytotoxicity screen (MTT) against human cancer cell lines, results in words; assay type: cell-based; settings: comparison within sub-series or with CHM-2133
Protocol: as §1, §2

[6] = tested on: HCT116; experiment: MTT assay, HCT-116 cells; assay type: cell-based; settings: Homo sapiens, Table 1, 48 h
Protocol: as §1
as §1, with “assays.” for “assays.^21,22”, “HCT-116, A549,” for “HCT-116,”, “KB, Kb-VIN” for “H460, Detroit 551”, “DU145” for “HT29/FuR”

[7] = tested on: Hep3B; experiment: MTT assay, Hep 3B cells; assay type: cell-based; settings: Homo sapiens
Protocol: as §1, §2
as §1, with “assays.” for “assays.^21,22”, “HCT-116, A549,” for “HCT-116,”, “KB, Kb-VIN” for “H460, Detroit 551”, “DU145” for “HT29/FuR”
as §1, with “assays.” for “assays.^21,22”, “HL-60,” for “HL-60, HCT-116,”, “H460, A498, Colo205 and” for “H460,”, “551” for “551 and HT29/FuR”

[8] = tested on: MES-SA/Dx5; experiment: MTT assay, MES-SA/Dx5 cells; assay type: cell-based, human; settings: for IC50: Homo sapiens, MES-SA/Dx5, 48 hrs; for Ratio Of SA/Dx5: IC50 MES-SA/Dx5 over IC50 MES-SA
Protocol: as §2

[9] = tested on: MES-SA; experiment: MTT assay, MES-SA cells; assay type: cell-based; settings: Homo sapiens, 48 hrs
Protocol: as §2

[10] = Table 1, 48 h, MTT, normal human cell
[11] = Homo sapiens, Table 3, B-2 series, 48 hrs
[12] = Homo sapiens, Table 2, B-1 series, 48 hrs

Compound	IC50 [1] [µM]	IC50 ([3]; Table 1, 48 h, MTT) [µM]	IC50 ([4]; Table 1, 48 h, MTT) [µM]	IC50 [6] [µM]	melting point [°C]	IC50 ([7]; Table 1, 48 h, MTT) [µM]	IC50 ([3]; Table 2, B-1 series, 48 hrs) [µM]	IC50 ([4]; Table 2, B-1 series, 48 hrs) [µM]	IC50 [2, 10] [µM]	cytotoxicity (in words) [5]	IC50 ([8]; Table 2, B-1 series) [µM]	Ratio Of SA/Dx5 ([8]; Table 2, B-1 series)	IC50 [2, 12] [µM]	IC50 ([9]; Table 2, B-1 series) [µM]	other results
COc1cc2c(cc1O)N=C(c1ccccc1F)CC2=O [Compound 43, 2-(2-Fluorophenyl)-7-hydroxy-6-methoxyquinolin-4-one]	0.29	4.4	1.3	5.8	277 to 279	5.3			29.7	greater cytotoxicity					
O=C1CC(c2ccc(F)cc2)=Nc2ccc3c(c21)OCO3 [Compound 21, 2-(4-Fluorophenyl)-5,6-methylenedioxyquinolin-4-one]	0.53	> 10	> 10	> 10	286 to 288	> 10			> 10	weaker					
COc1ccc2c(c1OC)C(=O)CC(c1cccc(F)c1)=N2 [Compound 17, 2-(3-Fluorophenyl)-5,6-dimethoxyquinolin-4-one]	1.96	3.5	1.3	1.2	190 to 192	2.6			100	strongest cytotoxicity					
COc1cc2c(cc1O)N=C(c1cccc(F)c1)CC2=O [Compound 44, 2-(3-Fluorophenyl)-7-hydroxy-6-methoxyquinolin-4-one]	0.3	4.8	0.9	1.1	326 to 328	5.3			10	greater cytotoxicity					
O=C1CC(c2cccc3c2OCO3)=Nc2ccc(N3CCCC3)cc21 [Compound 125, 2-(Benzo[d][1,3]-dioxol-4-yl)-6-pyrrolidinoquinolin-4-one]					330 to 332										IC50 ([8]; Table 3, B-2 series): 0.183 µM; Ratio Of SA/Dx5 ([8]; Table 3, B-2 series): 1.83; IC50 [2, 11]: > 2.5 µM; IC50 ([3]; Table 3, B-2 series, 48 hrs): 0.2 µM; IC50 ([4]; Table 3, B-2 series, 48 hrs): 0.08 µM; IC50 ([9]; Table 3, B-2 series): 0.1 µM; IC50 ([7]; Table 3, B-2 series, 48 hrs): 0.2 µM
CN(C)c1ccc2c(c1)C(=O)CC(c1cccc(O)c1)=N2 [Compound 139, 2-(3-Hydroxyphenyl)-6-dimethylaminoquinolin-4-one]					342 to 344										IC50 ([8]; Table 4, B-3 series): 0.852 µM; Ratio Of SA/Dx5 ([8]; Table 4, B-3 series): 0.92; IC50 ([2]; Homo sapiens, Table 4, B-3 series, 48 hrs): 10 µM; IC50 ([3]; Table 4, B-3 series, 48 hrs): 6.2 µM; IC50 ([4]; Table 4, B-3 series, 48 hrs): 0.06 µM; IC50 ([9]; Table 4, B-3 series): 0.931 µM; IC50 ([7]; Table 4, B-3 series, 48 hrs): 1 µM
O=C1CC(c2cc(O)ccc2O)=Nc2ccc(N3CCOCC3)cc21 [Compound 144a, 2-(2,5-dihydroxyphenyl)-6-morpholinoquinolin-4-one]															IC50 ([8]; Table 3, B-2 series): 25 µM; Ratio Of SA/Dx5 ([8]; Table 3, B-2 series): 6.78; IC50 [2, 11]: 9.1 µM; IC50 ([3]; Table 3, B-2 series, 48 hrs): 6.5 µM; IC50 ([4]; Table 3, B-2 series, 48 hrs): 1.62 µM; IC50 ([9]; Table 3, B-2 series): 3.69 µM; IC50 ([7]; Table 3, B-2 series, 48 hrs): 7.38 µM
COc1ccc2c(c1OC)C(=O)CC(c1ccc(F)cc1)=N2 [Compound 18, 2-(4-Fluorophenyl)-5,6-dimethoxyquinolin-4-one]	2.02	> 20	2	> 20	227 to 229	> 20			> 20	weaker					
O=C1CC(c2cccc(F)c2)=Nc2ccc3c(c21)OCO3 [Compound 20, 2-(3-Fluorophenyl)-5,6-methylenedioxyquinolin-4-one]	0.82	3.2	0.7	2.5	286 to 288	2.4			> 5	significant cytotoxicity					
O=C1CC(c2ccccc2F)=Nc2ccc3c(c21)OCO3 [Compound 19, 2-(2-Fluorophenyl)-5,6-methylenedioxyquinolin-4-one]	0.69	4.5	1	2.1	282 to 283	1.9			> 10	significant cytotoxicity					
COc1cc2c(cc1O)N=C(c1ccc(F)cc1)CC2=O [Compound 45, 2-(4-Fluorophenyl)-7-hydroxy-6-methoxyquinolin-4-one]	0.37	> 100	38.2	> 100	352 to 354	> 100			> 100	weaker					

Second part, led by results:

IC50 [1] [µM]	IC50 ([3]; Table 1, 48 h, MTT) [µM]	IC50 ([4]; Table 1, 48 h, MTT) [µM]	IC50 [6] [µM]	melting point [°C]	IC50 ([7]; Table 1, 48 h, MTT) [µM]	IC50 ([3]; Table 2, B-1 series, 48 hrs) [µM]	IC50 ([4]; Table 2, B-1 series, 48 hrs) [µM]	Compound	IC50 [2, 10] [µM]	cytotoxicity (in words) [5]	IC50 ([8]; Table 2, B-1 series) [µM]	Ratio Of SA/Dx5 ([8]; Table 2, B-1 series)	IC50 [2, 12] [µM]	IC50 ([9]; Table 2, B-1 series) [µM]	other results
				272 to 274				COc1ccc(OC)c(C2=Nc3ccc(N4CCCC4)cc3C(=O)C2)c1 [Compound 129, 2-(2,5-Dimethoxyphenyl)-6-pyrrolidinoquinolin-4-one]							IC50 ([8]; Table 3, B-2 series): 0.216 µM; Ratio Of SA/Dx5 ([8]; Table 3, B-2 series): 0.94; IC50 [2, 11]: 5 µM; IC50 ([3]; Table 3, B-2 series, 48 hrs): 0.19 µM; IC50 ([4]; Table 3, B-2 series, 48 hrs): 0.006 µM; IC50 ([9]; Table 3, B-2 series): 0.229 µM; IC50 ([7]; Table 3, B-2 series, 48 hrs): 0.22 µM
				304 to 306				O=C1CC(c2ccccc2O)=Nc2ccc(N3CCCC3)cc21 [Compound 135, 2-(2-Hydroxyphenyl)-6-pyrrolidinoquinolin-4-one]							IC50 ([8]; Table 3, B-2 series): 1 µM; Ratio Of SA/Dx5 ([8]; Table 3, B-2 series): 1.18; IC50 [2, 11]: 25 µM; IC50 ([3]; Table 3, B-2 series, 48 hrs): 0.86 µM; IC50 ([4]; Table 3, B-2 series, 48 hrs): 0.36 µM; IC50 ([9]; Table 3, B-2 series): 0.846 µM; IC50 ([7]; Table 3, B-2 series, 48 hrs): 1.31 µM
				357 to 360		24.8	0.23	O=C1CC(c2cccc(O)c2)=Nc2ccc(N3CCOCC3)cc21 [Compound 137, 2-(3-Hydroxyphenyl)-6-morpholinoquinolin-4-one]			7.3	2.02	10	3.61	IC50 ([7]; Table 2, B-1 series, 48 hrs): 11.5 µM
						3.47	1.2	COc1ccc(OC)c(C2=Nc3ccc(N4CCOCC4)cc3C(=O)C2)c1 [Compound 128, 2-(2,5-Dimethoxyphenyl)-6-morpholinoquinolin-4-one]			8.21	4.04	16.6	2.03	IC50 ([7]; Table 2, B-1 series, 48 hrs): 3.11 µM
				350 to 352		2.13	0.72	O=C1CC(c2cccc3c2OCO3)=Nc2ccc(N3CCOCC3)cc21 [Compound 124, 2-(Benzo[d][1,3]-dioxol-4-yl)-6-morpholinoquinolin-4-one]			2.1	0.89	> 2.5	2.35	IC50 ([7]; Table 2, B-1 series, 48 hrs): 1.5 µM
						8.3	2.1	O=C1CC(c2ccccc2O)=Nc2ccc(N3CCOCC3)cc21 [Compound 134, 2-(2-Hydroxyphenyl)-6-morpholinoquinolin-4-one]			10.4	4.38	> 100	2.38	IC50 ([7]; Table 2, B-1 series, 48 hrs): 8.78 µM
				258 to 260				COc1cccc(C2=Nc3ccc(N4CCCC4)cc3C(=O)C2)c1OC [Compound 127, 2-(2,3-Dimethoxyphenyl)-6-pyrrolidinoquinolin-4-one]							IC50 ([8]; Table 3, B-2 series): 1.71 µM; Ratio Of SA/Dx5 ([8]; Table 3, B-2 series): 2.13; IC50 [2, 11]: > 20 µM; IC50 ([3]; Table 3, B-2 series, 48 hrs): 1.78 µM; IC50 ([4]; Table 3, B-2 series, 48 hrs): 0.53 µM; IC50 ([9]; Table 3, B-2 series): 0.802 µM; IC50 ([7]; Table 3, B-2 series, 48 hrs): 1.2 µM
				235 to 236		17.4	5.22	COc1cccc(C2=Nc3ccc(N4CCOCC4)cc3C(=O)C2)c1OC [Compound 126, 2-(2,3-Dimethoxyphenyl)-6-morpholinoquinolin-4-one]			17.5	3.49	> 50	5	IC50 ([7]; Table 2, B-1 series, 48 hrs): 9.8 µM
				262 to 264		7.36	2.48	COc1ccccc1C1=Nc2ccc(N3CCOCC3)cc2C(=O)C1 [Compound 130, 2-(2-Methoxyphenyl)-6-morpholinoquinolin-4-one]			9.71	3.88	> 20	2.5	
